According to patent publication US12337033B2, “Encapsulated glycolipid antigens for treatment of neoplastic diseases” (EnGeneIC Molecular Delivery Pty Ltd, priority 2019, dated 2025):

Tests used:
[1] = tested on: many different tumor cell lines; test: Cytotoxicity assays against tumor cell lines; type: cell-based
JAWSII cells = test: αGC surface presentation through CD1d on JAWSII cells (anti-alpha GalCer:mCD1d staining, flow cytometry); type: cell-based, mouse; conditions: 8h-48h post-treatment, compared to minicells alone and untreated, free αGC 1000 ng/ml
Protocol: Cells used: Mouse immature […] JAWSII (ATCC® CRL-11904™).
Preparation Perfecta3D 96-Well Hanging Drop Plate: The upper and lower side tray reservoirs of the 3D hanging drop plates were filled with melted 1% agarose using a P1000 pipette (1 g agarose dissolve in 100 ml of water, dissolved in microwave and allowed to cool to ˜50° C.). The plates were allowed to dry and settle at room temperature for at least 30 min. The outside wells of the hanging drop plate were then filled with 50 μl of sterile cell culture media (without cells)/well.
Treatment of JAWSII spheroids with EDVαGC: JAWSII cells were treated with 1000 ng/ml aGC (positive control); empty minicells and minicellsαGC compared to untreated cells and collected at 8h, 16h, 24h and 48h post-treatment (FIGS. 8A-8D).
Dissociation of JAWSII cells into single-cell suspensions: JAWSII cells were grown as semi-suspension cultures in T25 or T75 flasks. The culture media was carefully collected into a sterile 50 ml tube by pipetting using a pipette-aid and the culture surface of the flask was washed 2× with 5 ml of sterile PBS, and collected in the same sterile 50 ml tube after each wash. […] To determine the cell number, 10 μl of the cell suspension was mixed with 10 μl of trypan blue solution and analyzed using an EVE automated cell counter. […]

| SMILES | drug resistance in tumor cell lines ([1]; a number of different tumor cell lines) | potency compared with a range of conventional chemotherapeutics ([1]; cytotoxicity assays, many different tumor cell lines) | staining with anti-GalCer:mCD1d (α-GC presentation on the cell surface by CD1d) (JAWSII cells) |
| --- | --- | --- | --- |
| COc1cccc2c1C(=O)c1c(O)c3c(c(O)c1C2=O)C[C@@](O)(C(=O)CO)C[C@@H]3OC1CC2C(OC3C(OC)OCCN23)C(C)O1 (stereo partly drawn) [PNU159682, 3′-deamino-3″,4′-anhydro-[2″(S)-methoxy-3″(R)-oxy-4″-morpholinyl] doxorubicin] | appears to overcome drug resistance | much more potent | – |
| CCCCCCCCCCCCCCCCCCCCCCCCCC(=O)N[C@@H](CO[C@H]1O[C@H](CO)[C@H](O)[C@H](O)[C@H]1O)[C@H](O)[C@H](O)CCCCCCCCCCCCCC [free α-GC, α-galactosylceramide] | – | – | clear shift |
